Molecules are shown by their SMILES. Where a name gives a salt, the structure may show the parent alone.

We go through 20 compounds from patent publication EP0942911B1, “BENZOPYRANOPYRROLE AND BENZOPYRANOPYRIDINE ALPHA-1 ADRENERGIC COMPOUNDS” (Abbott Laboratories, priority 1996, dated 1998).

The first test concerns the target T1, α-1B adrenoreceptor (Rattus norvegicus, UniProt P15823).
T1 construct: from tissue; host or cells: rat spleen
T1 sequence (P15823 1-515): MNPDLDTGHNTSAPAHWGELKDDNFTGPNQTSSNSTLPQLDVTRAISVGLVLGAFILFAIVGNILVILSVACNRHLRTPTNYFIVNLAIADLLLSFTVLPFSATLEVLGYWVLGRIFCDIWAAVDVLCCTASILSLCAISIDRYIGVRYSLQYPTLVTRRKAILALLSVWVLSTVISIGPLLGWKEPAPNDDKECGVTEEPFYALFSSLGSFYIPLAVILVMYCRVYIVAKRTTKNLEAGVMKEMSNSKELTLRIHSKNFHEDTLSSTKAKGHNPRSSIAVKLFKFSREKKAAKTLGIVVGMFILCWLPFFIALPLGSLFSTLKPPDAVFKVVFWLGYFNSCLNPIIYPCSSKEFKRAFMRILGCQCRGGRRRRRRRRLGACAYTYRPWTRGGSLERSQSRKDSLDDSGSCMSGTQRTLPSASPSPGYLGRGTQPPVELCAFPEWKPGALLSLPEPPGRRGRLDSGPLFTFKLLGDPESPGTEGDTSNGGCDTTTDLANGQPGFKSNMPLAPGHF
The test can be described thus: cell-based. To be noted: phenylephrine-induced contraction; Schild plot; read-out: In Vitro Characterization (pA2) Rat Spleen (converted). The method, boiled down:
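Phenylephrine dose-response curves for contraction were repeated against increasing test-agent concentrations. pA2 was derived by Schild plot [[…] vs log molarity of test agent].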
With `COc1cccc2c1[C@@H]1CN(CCCCn3c(=O)[nH]c4c(sc5cnccc54)c3=O)C[C@H]1CO2` [Example 42, 3-[4-((3aS,9bR)-trans-9-Methoxy-1,2,3,3a,4,9b-hexahydro-[1]-benzopyrano[3,4-c]pyrrol-2-yl)butyl]-pyrido[4',3':4,5]thieno[3,2-d]pyrimidine-2,4(1H,3H)-dione dihydrochloride], the Kb is 2.75 nM.

As for `COc1cccc2c1[C@@H]1CN(CCCCn3c(=O)[nH]c4c(sc5ncccc54)c3=O)C[C@H]1CO2` [Example 44, 3-[4-((3aS,9bR)-trans-9-Methoxy-1,2,3,3a,4,9b-hexahydro-[1]-benzopyrano[3,4-c]pyrrol-2-yl)butyl]-pyrido[3',2':4,5]thieno[3,2-d]pyrimidine-2,4(1H,3H)-dione hydrochloride], the Kb was 4.47 nM. Same read-out and setting: the same measure for `COc1cccc2c1[C@@H]1CN(CCCCn3c(=O)[nH]c4c(sc5nc(C)ccc54)c3=O)C[C@H]1CO2` [Example 45, 3-[4-((3aS,9bR)-trans-9-Methoxy-1,2,3,3a,4,9b-hexahydro-[1]-benzopyrano[3,4-c]pyrrol-2-yl)butyl]-7-methyl-pyrido[3',2':4,5]thieno[3,2-d]pyrimidine-2,4(1H,3H)-dione hydrochloride]: 1.29 nM; for `COc1ccc2c(n1)sc1c(=O)n(CCCCN3C[C@H]4COc5cccc(OC)c5[C@@H]4C3)c(=O)[nH]c12` [Example 46, 3-[4-((3aS,9bR)-trans-9-Methoxy-1,2,3,3a,4,9b-hexahydro-[1]-benzopyrano[3,4-c]pyrrol-2-yl)butyl]-7-methoxy-pyrido[3',2':4,5]thieno[3,2-d]pyrimidine-2,4(1H,3H)-dione hydrochloride]: 7.59 nM; for `COc1cccc2c1[C@@H]1CN(CCCCn3c(=O)[nH]c4c(sc5nc(Cl)ccc54)c3=O)C[C@H]1CO2` [Example 47, 3-[4-((3aS,9bR)-trans-9-Methoxy-1,2,3,3a,4,9b-hexahydro-[1]-benzopyrano[3,4-c]pyrrol-2-yl)butyl]-7-chloro-pyrido[3',2':4,5]thieno[3,2-d]pyrimidine-2,4(1H,3H)-dione hydrochloride]: 11.2 nM. On the same count and under the same terms, the same measure for `COc1cccc2c1[C@@H]1CN(CCCCn3c(=O)[nH]c4c(sc5ccnc(Cl)c54)c3=O)C[C@@H]1CO2` [Example 48, 3-[4-((3aR,9bR)-cis-9-Methoxy-1,2,3,3a,4,9b-hexahydro-[1]-benzopyrano[3,4-c]pyrrol-2-yl)butyl]-9-chloro-pyrido[3',4';4,5]thieno[3,2-d]pyrimidine-2,4(1H,3H)-dione hydrochloride]: 39.8 nM; for `COc1cccc2c1[C@@H]1CN(CCCCn3c(=O)[nH]c4c(sc5ccnc(OC)c54)c3=O)C[C@H]1CO2` [Example 49, 3-[4-((3aS,9bR)-trans-9-Methoxy-1,2,3,3a,4,9b-hexahydro-[1]-benzopyrano[3,4-c]pyrrol-2-yl)butyl]-9-methoxy-pyrido[3',4':4,5]thieno[3,2-d]pyrimidine-2,4(1H,3H)-dione fumarate]: 7.24 nM. On the same count and under the same terms, the same measure for `COc1cccc2c1[C@@H]1CN(CCCCn3c(=O)[nH]c4c(sc5ccc(OC(C)C)nc54)c3=O)C[C@H]1CO2` [Example 51, 3-[4-((3aS,9bR)-trans-9-Methoxy-1,2,3,3a,4,9b-hexahydro-[1]-benzopyrano[3,4-c]pyrrol-2-yl)butyl]-8-isopropoxy-pyrido[2',3':4,5]thieno[3,2-d]pyrimidine-2,4(1H,3H)-dione hydrochloride]: 33.9 nM; for `COc1cccc2c1[C@@H]1CN(CCCCn3c(=O)[nH]c4c(sc5c(Cl)nccc54)c3=O)C[C@@H]1CO2` [Example 53, 3-[4-((3aR,9bR)-cis-9-Methoxy-1,2,3,3a,4,9b-hexahydro-[1]-benzopyrano[3,4-c]pyrrol-2-yl)butyl]-6-chloro-pyrido[4',3':4,5]thieno[3,2-d]pyrimidine-2,4(1H,3H)-dione]: 63.1 nM; for `COc1cccc2c1[C@@H]1CN(CCCCn3c(=O)[nH]c4c(sc5c(Cl)nccc54)c3=O)C[C@H]1CO2` [Example 54, 3-[4-((3aS,9bR)-trans-9-Methoxy-1,2,3,3a,4,9b-hexahydro-[1]-benzopyrano[3,4-c]pyrrol-2-yl)butyl]-6-chloro-pyrido[4',3':4,5]thieno[3,2-d]pyrimidine-2,4(1H,3H)-dione]: 49 nM.

The next test concerns α-1A adrenoreceptor. Put plainly: Functional antagonism: inhibition of PE-induced contraction of canine prostate strips (Schild plot). As to conditions: phenylephrine-induced contraction. It is filed as cell-based. An excerpt:
Canine prostate strips were used in vitro as previously described (Hieble, J.P., Boyce, A.J. and Caine, M., Fed. Proc., 45: 2609-2614 (1986)), to determine antagonist potencies against phenylephrine-induced contractions.
Functional assays indicative of pharmacologically defined α-1 adrenoreceptors were used to further characterize compounds. Inhibition of phenylephrine (PE)-induced contraction of canine prostate smooth muscle can be correlated with α-1A adrenoreceptor activation. […] For each of these models, agonist dose response curves were repeated against increasing concentrations of test agent to derive a Schild plot [log ([…]) against log (molarity of test agent)] to determine the pA2.
For the compound `COc1ccc2c(c1)OC[C@H]1CN(CCn3c(=O)[nH]c4c(sc5ccccc54)c3=O)C[C@@H]21.Cl` (racemic) [Example 63, 3-[2-((±)-cis-7-Methoxy-1,2,3,3a,4,9b-hexahydro-[1]-benzopyrano[3,4-c]pyrrol-2-yl)ethyl]-[1]benzthieno[3,2-d]pyrimidine-2,4(1H,3H)-dione hydrochloride], the “In Vitro Characterization (pA2) Dog Prostate” value (“In Vitro Characterization” for short) was 6.65. Turning to `COc1ccc2c(c1)OC[C@H]1CN(CCCn3c(=O)[nH]c4c(sc5ccccc54)c3=O)C[C@@H]21.Cl` (racemic) [Example 64, 3-[3-((±)-cis-7-Methoxy-1,2,3,3a,4,9b-hexahydro-[1]-benzopyrano[3,4-c]pyrrol-2-yl)propyl]-[1]benzthieno[3,2-d]pyrimidine-2,4(1H,3H)-dione hydrochloride], the “In Vitro Characterization” value is given as 6.92. Same read-out and setting: to `COc1cccc2c1[C@@H]1CN(CCn3c(=O)[nH]c4c(sc5ccccc54)c3=O)C[C@@H]1CO2.Cl` (racemic) [Example 65, 3-[2-((±)-cis-9-Methoxy-1,2,3,3a,4,9b-hexahydro-[1]-benzopyrano[3,4-c]pyrrol-2-yl)ethyl]-[1]benzthieno[3,2-d]pyrimidine-2,4(1H,3H)-dione hydrochloride] belongs 7.76. The same measure, in the same setting: to `COc1cccc2c1[C@@H]1CN(CCCn3c(=O)[nH]c4c(sc5ccccc54)c3=O)C[C@@H]1CO2.Cl` (racemic) [Example 66, 3-[3-((±)-cis-9-Methoxy-1,2,3,3a,4,9b-hexahydro-[1]-benzopyrano[3,4-c]pyrrol-2-yl)propyl]-[1]benzthieno[3,2-d]pyrimidine-2,4(1H,3H)-dione hydrochloride] belongs 7.48; to `COc1cccc2c1OC[C@H]1CN(CCCn3c(=O)[nH]c4c(sc5ccccc54)c3=O)C[C@@H]21.Cl` (racemic) [Example 68, 3-[3-((±)-cis-6-Methoxy-1,2,3,3a,4,9b-hexahydro-[1]-benzopyrano[3,4-c]pyrrol-2-yl)propyl]-[1]benzthieno[3,2-d]pyrimidine-2,4(1H,3H)-dione hydrochloride], 7.02; to `Cl.O=c1[nH]c2c(sc3ccccc32)c(=O)n1CCN1C[C@@H]2COc3ccccc3[C@@H]2C1` (racemic) [Example 69, 3-[2-((±)-cis-1,2,3,3a,4,9b-hexahydro-[1]-benzopyrano[3,4-c]pyrrol-2-yl)ethyl]-[1]benzthieno[3,2-d]pyrimidine-2,4(1H,3H)-dione hydrochloride], 6.91. Regarding `COc1cccc2c1[C@@H]1CCN(CCCCn3c(=O)[nH]c4c(sc5ncccc54)c3=O)C[C@H]1CO2` (racemic) [Example 85, 3-[4-((±)-trans-10-Methoxy-1,3,4,4a,5,10b-hexahydro-2H-[1]-benzopyrano[3,4-c]pyrido-3-yl)butyl]-pyrido[3',2':4,5]thieno[3,2-d]pyrimidine-2,4(1H,3H)-dione dihydrochloride], the “In Vitro Characterization” value worked out at 8.6.

For the compound `COc1cccc2c1[C@@H]1CN(CCCCn3c(=O)[nH]c4c(sc5cccnc54)c3=O)C[C@@H]1CO2` [Example 1, 3-[4-((3aR,9bR)-cis-9-Methoxy-1,2,3,3a,4,9b-hexahydro-[1]-benzopyrano[3,4-c]pyrrol-2-yl)butyl]-pyrido[2',3':4,5]thieno[3,2-d]pyrimidine-2,4(1H,3H)-dione hydrochloride], the “In Vitro Characterization” value was found to be 8.69. Same read-out and setting: to `COc1cccc2c1[C@H]1CN(CCCCn3c(=O)[nH]c4c(sc5cccnc54)c3=O)C[C@H]1CO2` [Example 2, 3-[4-((3aS,9bS)-cis-9-Methoxy-1,2,3,3a,4,9b-hexahydro-[1]-benzopyrano[3,4-c]pyrrol-2-yl)butyl]-pyrido[2',3':4,5]thieno[3,2-d]pyrimidine-2,4(1H,3H)-dione hydrochloride] belongs 7.95; to `COc1cccc2c1[C@@H]1CN(CCCCn3c(=O)[nH]c4c(sc5cccnc54)c3=O)C[C@H]1CO2` [Example 3, 3-[4-((3aS,9bR)-trans-9-Methoxy-1,2,3,3a,4,9b-hexahydro-[1]-benzopyrano[3,4-c]pyrrol-2-yl)butyl]-pyrido[2',3':4,5]thieno[3,2-d]pyrimidine-2,4(1H,3H)-dione hydrochloride], 9.43.
